Test results reported in publication PMC3914206.

Experiments:
Type in all cases: binding
Conditions in all cases: Compound Concentration 10 µM
panel of 442 kinases [1] = target: T1, panel of 442 kinases (Homo sapiens, UniProt P50613)
T1 construct: purchased KINOMEscan
Description: (§1) We assessed the selectivity of members of this scaffold using the KINOMEscan methodology across a near comprehensive panel of 442 kinases [[18,27]].

panel of 442 kinases [2] = target: T2, panel of 442 kinases (Homo sapiens, UniProt P51617)
T2 construct: purchased KINOMEscan
Description: as §1

panel of 442 kinases [3] = target: T3, panel of 442 kinases (Homo sapiens, UniProt Q8NFD2)
T3 construct: purchased KINOMEscan
T3 sequence (Q8NFD2 1-765): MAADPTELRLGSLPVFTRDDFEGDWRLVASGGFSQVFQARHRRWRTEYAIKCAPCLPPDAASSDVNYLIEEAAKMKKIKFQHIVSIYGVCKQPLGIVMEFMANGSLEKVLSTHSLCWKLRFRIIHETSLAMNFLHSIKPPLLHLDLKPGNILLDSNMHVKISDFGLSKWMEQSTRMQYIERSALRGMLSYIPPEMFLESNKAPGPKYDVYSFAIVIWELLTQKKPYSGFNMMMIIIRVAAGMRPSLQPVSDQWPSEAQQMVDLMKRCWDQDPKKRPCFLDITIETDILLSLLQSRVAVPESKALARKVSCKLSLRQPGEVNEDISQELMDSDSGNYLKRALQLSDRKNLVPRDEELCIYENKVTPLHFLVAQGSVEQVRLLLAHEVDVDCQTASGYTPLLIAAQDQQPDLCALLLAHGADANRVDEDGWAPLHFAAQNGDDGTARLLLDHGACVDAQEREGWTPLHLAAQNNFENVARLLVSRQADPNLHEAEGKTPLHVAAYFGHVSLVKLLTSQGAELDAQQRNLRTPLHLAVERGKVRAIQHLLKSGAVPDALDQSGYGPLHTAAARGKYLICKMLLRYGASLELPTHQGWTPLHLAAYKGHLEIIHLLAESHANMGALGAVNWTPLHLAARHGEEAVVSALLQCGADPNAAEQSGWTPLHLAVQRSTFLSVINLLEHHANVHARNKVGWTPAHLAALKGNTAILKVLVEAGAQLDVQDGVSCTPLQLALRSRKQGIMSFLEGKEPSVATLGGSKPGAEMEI
Description: as §1

T1 sequence (P50613 whole entry): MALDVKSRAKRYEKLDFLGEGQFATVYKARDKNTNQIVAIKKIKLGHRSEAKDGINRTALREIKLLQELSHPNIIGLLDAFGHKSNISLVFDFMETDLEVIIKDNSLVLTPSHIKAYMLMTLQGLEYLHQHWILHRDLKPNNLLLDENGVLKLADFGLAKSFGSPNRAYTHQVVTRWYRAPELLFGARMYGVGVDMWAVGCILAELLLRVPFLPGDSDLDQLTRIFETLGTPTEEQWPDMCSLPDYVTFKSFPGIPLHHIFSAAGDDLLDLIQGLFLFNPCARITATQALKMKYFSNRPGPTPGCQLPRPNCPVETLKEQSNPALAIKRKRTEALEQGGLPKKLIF
T2 sequence (P51617 whole entry): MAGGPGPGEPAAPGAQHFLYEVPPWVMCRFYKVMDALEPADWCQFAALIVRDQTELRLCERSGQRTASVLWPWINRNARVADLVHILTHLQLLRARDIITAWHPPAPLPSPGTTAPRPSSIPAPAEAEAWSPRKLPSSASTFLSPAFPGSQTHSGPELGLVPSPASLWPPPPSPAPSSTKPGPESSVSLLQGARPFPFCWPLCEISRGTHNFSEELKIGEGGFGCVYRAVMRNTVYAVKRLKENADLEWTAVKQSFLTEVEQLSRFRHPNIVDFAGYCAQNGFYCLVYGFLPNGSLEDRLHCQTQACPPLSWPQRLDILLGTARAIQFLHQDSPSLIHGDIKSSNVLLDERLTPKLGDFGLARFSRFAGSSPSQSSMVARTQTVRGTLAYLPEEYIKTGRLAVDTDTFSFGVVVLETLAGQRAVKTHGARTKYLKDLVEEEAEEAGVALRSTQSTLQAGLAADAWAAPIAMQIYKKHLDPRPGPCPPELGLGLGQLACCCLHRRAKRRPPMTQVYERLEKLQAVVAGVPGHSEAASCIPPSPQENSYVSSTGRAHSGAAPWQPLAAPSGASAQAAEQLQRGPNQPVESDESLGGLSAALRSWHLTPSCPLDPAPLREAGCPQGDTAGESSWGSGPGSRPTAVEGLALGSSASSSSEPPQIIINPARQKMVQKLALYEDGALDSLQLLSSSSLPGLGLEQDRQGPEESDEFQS

Structure (SMILES) | KINOMEscan: CDK7 (panel of 442 kinases [1]) | KINOMEscan: IRAK1 (panel of 442 kinases [2]) | KINOMEscan: ANKK1 (panel of 442 kinases [3])
COc1cc(C(=O)N2CCC(N3CCN(C)CC3)CC2)ccc1Nc1ncc2c(n1)N(C1CCCC1)c1ccccc1C(=O)N2C [Compound 25, 11-cyclopentyl-2-((2-methoxy-4-(4-(4-methylpiperazin-1-yl)piperidine-1-carbonyl)phenyl)amino)-5-methyl-5H-benzo[e]pyrimido[5,4-b][1,4]diazepin-6(11H)-one] | 18 | 89 | 85
COc1cc(C(=O)N2CCC(N3CCN(C)CC3)CC2)ccc1Nc1ncc2c(n1)N1CCc3cccc(c31)C(=O)N2C [Compound 24] |  | 95 | 
COc1cc(C(=O)N2CCC(N3CCN(C)CC3)CC2)ccc1Nc1ncc2c(n1)N(C)c1ccccc1C(=O)N2C [15 (LRRK2-IN-1)] | 86 | 100 | 100
CCOc1cc(C(=O)N2CCC(N3CCN(C)CC3)CC2)ccc1Nc1ncc2c(n1)N(C1CCCC1)c1ccccc1C(=O)N2C [Compound 26] | 57 | 100 | 84
